Biological target: HDAC6 (Homo sapiens (Human), UniProt Q9UBN7)
Assay: HDAC6 TR-FRET displacement assay
Type: binding
Details: displacement of fluorescein labeled tracer from HDAC6; 2 nM HDAC6, 1 nM tracer, 0.5 nM Tb-anti-GST antibody; 30 min pre-incubation, 6 hours at 25° C.
Excerpt: HDAC6 and Tb-anti-GST antibody were purchased from Signal Chem (cat #PC124) and Cisbio (cat #61GSTTAH), respectively. HEPES, pH 7.5 was purchased from Teknova (Cat #H1575). All other buffer components, NaCl (cat #S5150), KCl (cat #60121), Triton X-100 (cat #T9284), GSH (cat #G4251), BGG (cat #G5009), and BSA (cat #A2153) were purchased from SIGMA.
Displacement of fluorescein labeled tracer 2-(6-hydroxy-3-oxo-3H-xanthen-9-yl)-5-({[5-(4-{[7-(hydroxycarbamoyl)-2H,3H,4H,5H-thieno[2,3-f][1,4]oxazepine-4-carbonyl]amino}phenoxy)pentyl]carbamothioyl}amino)benzoic acid from HDAC6 was measured in vitro using a TR-FRET assay. The assays were performed in 1536-well plates in a total volume of 6 μL in assay buffer consisting of 50 mM HEPES pH 7.5, 50 mM NaCl, 50 mM KCl, 0.01% Triton X-100, 0.5 mM GSH, 0.03% BGG, 0.01% BSA.
For concentration response curves (IC50 determination), Compounds were serially diluted 3-fold from 2 mM highest concentration to generate a 10-point concentration gradient. To perform the assay, 30 nL of compound gradient solutions were transferred to the assay plate using the ECHO acoustic dispenser to achieve a final concentration range of 10 μM to 0.000508 uM in 6 μL reaction. 3 μL of HDAC6 in assay buffer were added to the assay plates and pre-incubate at room temp. for 30 mins. After pre-incubation, 3 μL of the tracer and TB-anti-GST antibody mix were added to the assay plates. The final concentrations of HDAC6, tracer, and TB-anti-GST antibody for each assay are 2 nM, 1 nM, and 0.5 nM, respectively. Binding reactions were equilibrated at 25° C. for an additional 6 hours, then read in endpoint mode on the BMG PheraStar (BMG labtech) equipped with a 337-520-490 optical module. The ratio of the 520/490 nm emission was calculated to determine the relative amounts of HDAC6 and tracer complex residue in each well.
The percent inhibition of HDAC6 (IC50) was calculated according to the following equation.
As set forth in Table 1, “A” indicates an HDAC6 IC50 value of less than 200 nM; “B” indicates an HDAC6 IC50 value of greater than or equal to 200 nM and less than 500 nM; and “C” indicates an HDAC6 IC50 value of greater than or equal to 500 nM and less than 5 μM.

Chain of HDAC6 (Q9UBN7 whole entry): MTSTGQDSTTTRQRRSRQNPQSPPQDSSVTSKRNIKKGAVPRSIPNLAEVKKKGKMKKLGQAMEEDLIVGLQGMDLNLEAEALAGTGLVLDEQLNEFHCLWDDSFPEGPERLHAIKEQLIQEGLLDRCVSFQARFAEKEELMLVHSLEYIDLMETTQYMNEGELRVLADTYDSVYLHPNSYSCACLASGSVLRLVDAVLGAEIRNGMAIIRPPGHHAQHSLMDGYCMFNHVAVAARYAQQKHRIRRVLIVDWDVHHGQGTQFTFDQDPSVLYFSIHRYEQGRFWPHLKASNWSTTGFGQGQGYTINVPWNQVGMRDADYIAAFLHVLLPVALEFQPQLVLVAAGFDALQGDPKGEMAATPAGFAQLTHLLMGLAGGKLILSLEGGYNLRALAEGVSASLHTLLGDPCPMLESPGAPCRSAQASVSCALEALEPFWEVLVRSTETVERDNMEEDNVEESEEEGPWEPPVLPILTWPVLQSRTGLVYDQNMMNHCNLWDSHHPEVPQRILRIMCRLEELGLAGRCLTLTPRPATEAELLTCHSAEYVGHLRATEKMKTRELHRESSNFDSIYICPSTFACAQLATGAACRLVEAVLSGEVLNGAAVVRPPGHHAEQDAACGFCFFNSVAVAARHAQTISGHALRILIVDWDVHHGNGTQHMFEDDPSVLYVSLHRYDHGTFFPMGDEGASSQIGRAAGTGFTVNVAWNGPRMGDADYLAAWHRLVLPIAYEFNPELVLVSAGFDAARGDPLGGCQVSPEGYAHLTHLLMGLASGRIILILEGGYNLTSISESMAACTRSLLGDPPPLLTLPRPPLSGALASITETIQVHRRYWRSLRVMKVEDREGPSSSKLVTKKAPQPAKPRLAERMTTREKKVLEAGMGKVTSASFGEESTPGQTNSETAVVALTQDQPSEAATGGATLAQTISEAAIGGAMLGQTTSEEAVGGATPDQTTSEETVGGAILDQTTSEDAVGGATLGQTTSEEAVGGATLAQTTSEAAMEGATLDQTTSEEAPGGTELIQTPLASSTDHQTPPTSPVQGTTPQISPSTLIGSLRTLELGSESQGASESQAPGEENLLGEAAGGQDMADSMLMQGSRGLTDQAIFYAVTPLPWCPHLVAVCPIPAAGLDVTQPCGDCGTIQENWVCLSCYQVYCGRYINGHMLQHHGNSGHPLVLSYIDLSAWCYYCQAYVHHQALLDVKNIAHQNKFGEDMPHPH

SMILES | IC50
C[C@H]1COc2cc(-c3noc(C(F)(F)F)n3)ccc2CN1CC(F)(F)F [Compound 36, (S)-3-methyl-4-(2,2,2-trifluoroethyl)-8-(5-(trifluoromethyl)-1,2,4-oxadiazol-3-yl)-2,3,4,5-tetrahydrobenzo[f][1,4]oxazepine] | 500 to 5000 nM
C[C@H]1COc2cc(-c3noc(C(F)(F)F)n3)cc(F)c2CN1C(=O)C1(C)COC1 [Compound 1, (S)-(6-fluoro-3-methyl-8-(5-(trifluoromethyl)-1,2,4-oxadiazol-3-yl)-2,3-dihydrobenzo[f][1,4]oxazepin-4(5H)-yl)(3-methyloxetan-3-yl)methanone] | < 200 nM
C[C@H]1COc2cc(-c3noc(C(F)(F)F)n3)cc(F)c2CN1C(=O)CN(C)C [Compound 43, (S)-2-(dimethylamino)-1-(6-fluoro-3-methyl-8-(5-(trifluoromethyl)-1,2,4-oxadiazol-3-yl)-2,3-dihydrobenzo[f][1,4]oxazepin-4(5H)-yl)ethan-1-one] | 200 to 500 nM
CC(=O)N1CCC(C)(C(=O)N2Cc3c(F)cc(-c4noc(C(F)(F)F)n4)cc3OC[C@@H]2C)CC1 [Compound 48, (S)-1-(4-(6-fluoro-3-methyl-8-(5-(trifluoromethyl)-1,2,4-oxadiazol-3-yl)-2,3,4,5-tetrahydrobenzo[f][1,4]oxazepine-4-carbonyl)-4-methylpiperidin-1-yl)ethan-1-one] | 200 to 500 nM
CC(C)(C)C(=O)N1Cc2ccc(-c3noc(C(F)(F)F)n3)cc2OC[C@@H]1c1ccccc1 [Compound 23, 2,2-dimethyl-1-[(3S)-3-phenyl-8-[5-(trifluoromethyl)-1,2,4-oxadiazol-3-yl]-3,5-dihydro-2H-1,4-benzoxazepin-4-yl]propan-1-one] | 200 to 500 nM
C[C@H]1COc2cc(-c3noc(C(F)(F)F)n3)cc(F)c2CN1C(=O)C(F)(F)F [Compound 24, (S)-2,2,2-trifluoro-1-(6-fluoro-3-methyl-8-(5-(trifluoromethyl)-1,2,4-oxadiazol-3-yl)-2,3-dihydrobenzo[f][1,4]oxazepin-4(5H)-yl)ethan-1-one] | < 200 nM
C[C@H]1COc2cc(-c3noc(C(F)(F)F)n3)cc(F)c2CN1C(=O)CCN(C)C [Compound 42, (S)-3-(dimethylamino)-1-(6-fluoro-3-methyl-8-(5-(trifluoromethyl)-1,2,4-oxadiazol-3-yl)-2,3-dihydrobenzo[f][1,4]oxazepin-4(5H)-yl)propan-1-one] | 200 to 500 nM
C[C@H]1COc2cc(-c3noc(C(F)(F)F)n3)cc(F)c2CN1C(=O)C1CCOCC1 [Compound 39, (3S)-6-fluoro-3-methyl-4-[(oxan-4-yl)carbonyl]-8-[5-(trifluoromethyl)-1,2,4-oxadiazol-3-yl]-3,5-dihydro-2H-1,4-benzoxazepine] | < 200 nM
CC1(C(=O)N2Cc3ccc(-c4noc(C(F)(F)F)n4)cc3OC[C@@H]2c2ccccc2)COC1 [Compound 5, (3S)-4-[(3-methyloxetan-3-yl)carbonyl]-3-phenyl-8-[5-(trifluoromethyl)-1,2,4-oxadiazol-3-yl]-3,5-dihydro-2H-1,4-benzoxazepine] | < 200 nM
CC1(C(=O)N2CCOc3cc(-c4noc(C(F)(F)F)n4)cc(F)c3C2)COC1 [Compound 37, 6-fluoro-4-[(3-methyloxetan-3-yl)carbonyl]-8-[5-(trifluoromethyl)-1,2,4-oxadiazol-3-yl]-3,5-dihydro-2H-1,4-benzoxazepine] | < 200 nM
CC(C)(C)C(=O)N1CCOc2cc(-c3noc(C(F)(F)F)n3)cc(F)c2C1 [Compound 29, 1-{6-fluoro-8-[5-(trifluoromethyl)-1,2,4-oxadiazol-3-yl]-3,5-dihydro-2H-1,4-benzoxazepin-4-yl}-2,2-dimethylpropan-1-one] | < 200 nM
C[C@H]1COc2cc(-c3noc(C(F)(F)F)n3)ccc2CN1S(=O)(=O)C(C)(C)C [Compound 34, (3S)-3-methyl-4-(2-methylpropane-2-sulfonyl)-8-[5-(trifluoromethyl)-1,2,4-oxadiazol-3-yl]-3,5-dihydro-2H-1,4-benzoxazepine] | 200 to 500 nM
C[C@H]1COc2cc(-c3noc(C(F)(F)F)n3)cc(F)c2CN1C(=O)CO [Compound 40, 1-[(3S)-6-fluoro-3-methyl-8-[5-(trifluoromethyl)-1,2,4-oxadiazol-3-yl]-3,5-dihydro-2H-1,4-benzoxazepin-4-yl]-2-hydroxyethanone] | 200 to 500 nM
CC1(C(=O)N2Cc3ccc(-c4noc(C(F)(F)F)n4)cc3OCC23CC3)COC1 [Compound 47, (3-methyloxetan-3-yl)(8-(5-(trifluoromethyl)-1,2,4-oxadiazol-3-yl)-2H-spiro[benzo[f][1,4]oxazepine-3,1′-cyclopropan]-4(5H)-yl)methanone] | 200 to 500 nM
COC[C@H]1COc2cc(-c3noc(C(F)(F)F)n3)ccc2CN1C(=O)C1(C)CCOCC1 [Compound 26, (3S)-3-(methoxymethyl)-4-[(4-methyloxan-4-yl)carbonyl]-8-[5-(trifluoromethyl)-1,2,4-oxadiazol-3-yl]-3,5-dihydro-2H-1,4-benzoxazepine] | < 200 nM
CC1(C(=O)N2CCOc3cc(-c4noc(C(F)(F)F)n4)cc(F)c3C2)CCOCC1 [Compound 28, 6-fluoro-4-[(4-methyloxan-4-yl)carbonyl]-8-[5-(trifluoromethyl)-1,2,4-oxadiazol-3-yl]-3,5-dihydro-2H-1,4-benzoxazepine] | < 200 nM
CC(C)C(=O)N1CCOc2cc(-c3noc(C(F)(F)F)n3)ccc2C1 [Compound 53, 2-methyl-1-{8-[5-(trifluoromethyl)-1,2,4-oxadiazol-3-yl]-3,5-dihydro-2H-1,4-benzoxazepin-4-yl}propan-1-one] | 200 to 500 nM
CC(C)N1CCC(C)(C(=O)N2Cc3c(F)cc(-c4noc(C(F)(F)F)n4)cc3OC[C@@H]2C)CC1 [Compound 56, (S)-(6-fluoro-3-methyl-8-(5-(trifluoromethyl)-1,2,4-oxadiazol-3-yl)-2,3-dihydrobenzo[f][1,4]oxazepin-4(5H)-yl)(1-isopropyl-4-methylpiperidin-4-yl)methanone] | < 200 nM
C[C@H]1COc2cc(-c3noc(C(F)(F)F)n3)cc(F)c2CN1C(=O)Cc1ccncc1 [Compound 46, 1-[(3S)-6-fluoro-3-methyl-8-[5-(trifluoromethyl)-1,2,4-oxadiazol-3-yl]-3,5-dihydro-2H-1,4-benzoxazepin-4-yl]-2-(pyridin-4-yl) ethenone] | < 200 nM
C[C@H]1COc2cc(-c3noc(C(F)(F)F)n3)ccc2CN1S(C)(=O)=O [Compound 33, (S)-3-methyl-4-(methylsulfonyl)-8-(5-(trifluoromethyl)-1,2,4-oxadiazol-3-yl)-2,3,4,5-tetrahydrobenzo[f][1,4]oxazepine] | 200 to 500 nM
C[C@H]1COc2cc(-c3noc(C(F)(F)F)n3)ccc2CN1C(=O)C1(C)CCOCC1 [Compound 16, (3S)-3-methyl-4-[(4-methyloxan-4-yl)carbonyl]-8-[5-(trifluoromethyl)-1,2,4-oxadiazol-3-yl]-3,5-dihydro-2H-1,4-benzoxazepine] | < 200 nM
COCC1(C(=O)N2Cc3ccc(-c4noc(C(F)(F)F)n4)cc3OC[C@@H]2c2ccccc2)COC1 [Compound 7, (3S)-4-{[3-(methoxymethyl)oxetan-3-yl]carbonyl}-3-phenyl-8-[5-(trifluoromethyl)-1,2,4-oxadiazol-3-yl]-3,5-dihydro-2H-1,4-benzoxazepine] | < 200 nM
C[C@H]1COc2cc(-c3noc(C(F)(F)F)n3)cc(F)c2CN1C(=O)c1ccccc1 [Compound 44, (3S)-4-benzoyl-6-fluoro-3-methyl-8-[5-(trifluoromethyl)-1,2,4-oxadiazol-3-yl]-3,5-dihydro-2H-1,4-benzoxazepine] | 200 to 500 nM
CCN1CCC(C)(C(=O)N2Cc3c(F)cc(-c4noc(C(F)(F)F)n4)cc3OC[C@@H]2C)CC1 [Compound 55, (S)-(1-ethyl-4-methylpiperidin-4-yl)(6-fluoro-3-methyl-8-(5-(trifluoromethyl)-1,2,4-oxadiazol-3-yl)-2,3-dihydrobenzo[f][1,4]oxazepin-4(5H)-yl)methanone] | 200 to 500 nM
CC1(C(=O)N2CCOc3cc(-c4noc(C(F)(F)F)n4)ccc3C2)COC1 [Compound 52, 4-[(3-methyloxetan-3-yl)carbonyl]-8-[5-(trifluoromethyl)-1,2,4-oxadiazol-3-yl]-3,5-dihydro-2H-1,4-benzoxazepine] | 200 to 500 nM

— patent US20250263405A1, “HISTONE DEACETYLASE 6 INHIBITOR COMPOUNDS AND USES THEREOF” (VALO HEALTH, INC., priority 2021, published 2025)
